# Source: ChEMBL document CHEMBL1201862, “PubChem BioAssay data set” (2004)
#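 How tested: cells in 96-well plates exposed to compound for 48 hours at five concentrations. The concentration for 50% growth inhibition is given as GI50.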 Activity calls are given as the source filed them. Cut-off read from the data, not from the text of the source: active = GI50 up to about 1.1 µM and inactive = higher.
# Test system: HCC 2998
# Experiment: NCI-60 cell line screen, 48 h
smiles,measurement,value
c1ccc(-c2ccnc3c2ccc2c(-c4ccccc4)ccnc23)cc1,GI50,3.53 µM (inactive)
